What was measured:
[1] = target: T1, Complement C1s subcomponent (Homo sapiens, UniProt P09871); assay: Binding affinity to human C1S assessed as inhibition constant
T1 sequence (P09871 whole entry): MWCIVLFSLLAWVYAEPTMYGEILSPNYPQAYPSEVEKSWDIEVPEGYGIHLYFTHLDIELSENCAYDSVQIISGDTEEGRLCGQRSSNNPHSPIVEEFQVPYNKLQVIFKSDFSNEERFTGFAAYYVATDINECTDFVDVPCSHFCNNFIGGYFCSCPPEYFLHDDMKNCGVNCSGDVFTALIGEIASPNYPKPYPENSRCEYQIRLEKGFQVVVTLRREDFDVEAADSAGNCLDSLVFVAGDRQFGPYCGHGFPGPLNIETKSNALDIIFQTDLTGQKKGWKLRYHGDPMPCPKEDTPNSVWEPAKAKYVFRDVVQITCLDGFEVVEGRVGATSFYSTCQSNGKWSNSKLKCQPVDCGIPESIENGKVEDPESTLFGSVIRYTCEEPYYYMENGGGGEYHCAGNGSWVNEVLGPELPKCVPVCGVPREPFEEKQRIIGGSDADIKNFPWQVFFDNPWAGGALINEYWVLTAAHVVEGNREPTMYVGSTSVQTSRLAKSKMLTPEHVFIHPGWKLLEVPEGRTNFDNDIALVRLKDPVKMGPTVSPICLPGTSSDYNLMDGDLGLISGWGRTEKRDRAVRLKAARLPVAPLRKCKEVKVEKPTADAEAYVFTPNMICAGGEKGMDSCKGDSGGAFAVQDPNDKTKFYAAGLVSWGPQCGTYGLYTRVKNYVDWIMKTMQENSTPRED

[2] = target: T2, Complement C1r subcomponent (Homo sapiens, UniProt P00736); assay: Binding affinity to C1R (unknown origin) assessed as inhibition constant
T2 sequence (P00736 whole entry): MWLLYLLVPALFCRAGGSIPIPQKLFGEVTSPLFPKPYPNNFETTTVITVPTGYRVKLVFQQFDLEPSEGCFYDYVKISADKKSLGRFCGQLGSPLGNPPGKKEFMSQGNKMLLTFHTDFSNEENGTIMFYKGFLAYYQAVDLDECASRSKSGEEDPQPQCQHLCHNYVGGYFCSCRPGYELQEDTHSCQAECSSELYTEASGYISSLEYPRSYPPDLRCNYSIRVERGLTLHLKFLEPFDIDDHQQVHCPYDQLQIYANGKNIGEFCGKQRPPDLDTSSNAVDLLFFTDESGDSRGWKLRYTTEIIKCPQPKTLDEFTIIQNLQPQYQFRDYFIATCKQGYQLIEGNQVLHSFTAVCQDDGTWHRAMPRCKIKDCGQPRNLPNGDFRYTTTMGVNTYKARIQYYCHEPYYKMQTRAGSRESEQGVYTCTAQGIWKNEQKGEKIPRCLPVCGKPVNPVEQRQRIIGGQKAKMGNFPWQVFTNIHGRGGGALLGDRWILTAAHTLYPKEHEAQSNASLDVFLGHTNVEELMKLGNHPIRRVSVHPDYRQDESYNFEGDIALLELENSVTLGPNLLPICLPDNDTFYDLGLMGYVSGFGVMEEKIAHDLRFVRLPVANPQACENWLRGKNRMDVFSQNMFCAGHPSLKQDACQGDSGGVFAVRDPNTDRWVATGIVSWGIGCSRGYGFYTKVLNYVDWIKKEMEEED

Complement factor D = Complement factor D (Homo sapiens, UniProt P00746); assay: Binding affinity to factor D (unknown origin) assessed as inhibition constant
Prothrombin = Prothrombin (Homo sapiens, UniProt P00734); assay: Binding affinity to thrombin (unknown origin) assessed as inhibition constant
Trypsin = Trypsin (Homo sapiens, UniProt P07477+P07478+P35030); assay: Binding affinity to trypsin (unknown origin) assessed as inhibition constant; format: protein assay
[3] = Inhibition of human recombinant kallikrein using Pro-Phe-Arg-AMC as substrate pretreated with compound followed by substrate addition incubated for 60 mins by multilabel plate reader method

Chain of Complement factor D (P00746 whole entry): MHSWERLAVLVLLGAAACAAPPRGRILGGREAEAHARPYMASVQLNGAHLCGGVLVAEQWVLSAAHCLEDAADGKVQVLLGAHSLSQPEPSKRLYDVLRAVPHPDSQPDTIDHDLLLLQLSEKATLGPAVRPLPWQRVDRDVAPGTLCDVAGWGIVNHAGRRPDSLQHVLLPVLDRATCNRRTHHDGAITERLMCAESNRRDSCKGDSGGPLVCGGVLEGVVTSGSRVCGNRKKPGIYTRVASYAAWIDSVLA

| SMILES | Ki [1] | Ki [2] | Ki (Complement factor D) | Ki (Prothrombin) | Ki (Trypsin) | IC50 [3] |
| --- | --- | --- | --- | --- | --- | --- |
| CCCc1c(-c2csc(-c3cc(C(=N)N)sc3SC)n2)cnn1-c1ccccn1 | 0.07 µM | ≥ 50 µM | 3.7 µM | > 50 µM | 0.18 µM |  |
| Cc1cc([C@H]2CN(c3cc(F)c4c(N)nncc4c3)CCN2c2cccc(F)c2)no1 |  |  |  |  |  | > 30 µM |
